From patent US5521170A, “Benzamide derivatives and pharmaceutical composition comprising the same” (Fujisawa Pharmaceutical Co., Ltd., priority 1993, dated 1996)

Molecular target: T1, Vasopressin 1 (Vl) receptor (Rattus norvegicus, UniProt P30560)
T1 construct: The rat liver was dissected and homogenized; from tissue; host or cells: rat liver membranes
Test: Vasopressin 1 (Vl) receptor binding
Conditions: rat liver membrane; 0.5 nM ^3H-vasopressin; 60 minutes at 25° C.; pH 7.4
Experimental: Vasopressin 1 (Vl) receptor binding
The rat liver was dissected and homogenized in 10 volume of ice cold 250 mM sucrose buffer containing 25 mM Tris-HCl (pH 7.4), 5 mM MgCl2 and 0.1 mM phenylmethylsulfonyl fluoride (PMSF). The homogenate was centrifuged at 1000 xg for 10 minutes. The supernatant fraction was separated and centrifuged at 45,000 xg for 30 minutes. The remaining pellet was resuspended in 10 volume of ice cold 100 mM Tris-HCl (pH 7.4) buffer (containing 5 mM MgCl2, 0.1% bovine serum albumin and 0.1 mM PMSF), and centrifuged at 45,000 xg for 30 minutes again. The final pellet was resuspended in 100 mM Tris-HCl buffer. The resulting membrane preparation was used immediately for the binding assay.
Competition assays were conducted at equilibrium (60 minutes at 25° C.) by using 0.5 nM ^3 H-vasopressin ([phenylalanyl-3,4,5-^3 H]-vasopression; 40-87 Ci/mmol; New England Nuclear) in 100 mM Tris-HCl (pH 7.4) buffer. Nonspecific binding was determined by using 1 μM [d(CH2)5, Tyr^2 (Me), Arg^8 ]-vasopressin (Peptide institute, Japan). After incubation, reaction was terminated by adding 5 ml of ice-cold 100 mM Tris-HCl (pH 7.4) buffer, and then filtered rapidly through Whatman glass filter (GF/C). […] The glass filter was mixed with liquid scintilation cocktail, and radioactivity was counted in a liquid scintilation counter (TRI-CARB 4530, Packard). […]

T1 sequence (P30560 whole entry): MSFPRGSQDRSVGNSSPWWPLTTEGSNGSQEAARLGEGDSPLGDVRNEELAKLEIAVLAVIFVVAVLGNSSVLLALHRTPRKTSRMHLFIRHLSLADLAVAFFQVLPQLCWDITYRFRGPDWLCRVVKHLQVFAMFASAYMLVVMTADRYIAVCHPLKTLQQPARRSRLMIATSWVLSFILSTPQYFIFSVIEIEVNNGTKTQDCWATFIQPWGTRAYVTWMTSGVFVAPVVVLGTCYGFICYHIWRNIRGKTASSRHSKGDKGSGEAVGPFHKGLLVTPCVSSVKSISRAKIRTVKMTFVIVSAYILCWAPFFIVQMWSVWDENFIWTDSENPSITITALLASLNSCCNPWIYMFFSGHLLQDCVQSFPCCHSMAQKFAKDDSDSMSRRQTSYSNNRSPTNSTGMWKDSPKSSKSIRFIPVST

Which IC50 does the source give for `Cc1ccc(-c2ccccc2C(=O)Nc2ccc(C(=O)N3CCCCc4ccccc43)cc2)cc1` [2-2), 1-{4-[2-(4-Methylphenyl)benzoylamino]benzoyl}-2,3,4,5-tetrahydro-1H-benzazepine] here?
The IC50 was 3.9 nM.

With `Cc1ccccc1-c1ccccc1C(=O)Nc1ccc(C(=O)N2CCCC(N(C)C)c3ccccc32)cc1` (centres unmarked) [2-21), 5-Dimethylamino-1-{4-[2-(2-methylphenyl)benzoylamino]benzoyl}-2,3,4,5-tetrahydro-1H-benzazepine] as the molecule, how does the IC50 read?
Its IC50 is 4.4 nM.

Molecular target: T2, Vasopressin 2 (V2) receptor (Rattus norvegicus, UniProt Q00788)
T2 construct: The medullopapillary region of male rat kidey was dissected; from tissue; host or cells: male rat kidney medullopapillary membranes
Test: Vasopressin 2 (V2) receptor binding
Conditions: male rat kidney medullopapillary membrane; 0.5 nM ^3H-vasopressin; 2 hours at 25° C.; pH 7.4
Experimental: Vasopressin 2 (V2) receptor binding
The medullopapillary region of male rat kidey was dissected and homogenized in 10 volume of ice cold 250 mM sucrose buffer containing 25 mM Tris-HCl (pH 7.4), 5 mM MgCl2 and 0.1 mM phenylmethylsulfonyl fluoride (PMSF). The homogenate was centrifuged at 500 xg for 5 minutes. The supernatant fraction was separated and centrifuged at 45,000 xg for 30 minutes. The remaining pellet was resuspended in 10 volume of ice cold 100 mM Tris-HCl (pH 7.4) buffer (containing 5 mM MgCl2, 0.1% bovine serum albumin and 0.1 mM PMSF), and centrifuged at 45,000 xg for 30 minutes again. The final pellet was resuspended in 100 mM Tris-HCl buffer. The resulting membrane preparation was used immediately for the binding assay.
Competition assays were conducted at equilibrium (2 hours at. 25° C.) by using 0.5 nM ^3 H-vasopression ([phenylalanyl-3,4,5-3H]-vasopression; 40-87 Ci/mmol; New England Nuclear) in 100 mM Tris-HCl (pH 7.4) buffer. Nonspecific binding was determined by using 1 μM [d(CH2)5, D-Ile^2 Ile^4 Arg8]-vasopressin (Peninsula Laboratories USA). After incubation, reaction was terminated by adding 5 ml of ice-cold 100 mM Tris-HCl (pH 7.4) buffer, and then filtered rapidly through Whatman glass filter (GF/C). The filter was washed 2 times with the same buffer (5 ml). The glass filter was mixed with liquid scintilation cocktail, and radioactivity was counted in a liquid scintilation counter (TRI-CARB 4530, Packard). Competition activity of the test compound was represented by IC50 values.

T2 sequence (Q00788 whole entry): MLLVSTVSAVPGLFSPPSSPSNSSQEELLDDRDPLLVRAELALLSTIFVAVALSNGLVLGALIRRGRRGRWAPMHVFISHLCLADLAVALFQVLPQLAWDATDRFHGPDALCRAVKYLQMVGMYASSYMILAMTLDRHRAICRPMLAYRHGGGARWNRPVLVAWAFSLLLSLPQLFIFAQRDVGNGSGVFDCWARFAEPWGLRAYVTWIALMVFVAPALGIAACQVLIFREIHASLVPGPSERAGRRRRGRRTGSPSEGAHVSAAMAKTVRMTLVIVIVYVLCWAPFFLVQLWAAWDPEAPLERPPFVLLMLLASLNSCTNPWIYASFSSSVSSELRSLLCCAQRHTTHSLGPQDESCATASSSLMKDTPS

With `Cc1ccc(-c2ccccc2C(=O)Nc2ccc(C(=O)N3CCC(=O)N(CC(=O)N4CCN(C)CC4)c4ccccc43)cc2)cc1` [Example 15, 5-{4-[2-(4-methylphenyl)benzoylamino]benzoyl}-1-[(4-methyl-1-piperazinyl)carbonylmethyl]-1,3,4,5-tetrahydro-1,5-benzodiazepin-2(2H)-one] as the molecule, how does the IC50 read?
The IC50 was 1.8 nM.

How did the IC50 turn out when `Cc1ccc(-c2ccccc2C(=O)Nc2ccc(C(=O)N3CCC(=O)N(CC(=O)N4CCN(C)CC4)c4ccccc43)cc2)c(C)c1` [16-3), 5-{4-[2-(2,4-Dimethylphenyl)benzoylamino]benzoyl}-1-[(4-methyl-1-piperazinyl)carbonylmethyl]-1,3,4,5-tetrahydro-1,5-benzodiazepin-2 (2H)-one] was run?
The IC50 was 2.3 nM.

How did the IC50 turn out when `Cc1ccc(-c2ccccc2C(=O)Nc2ccc(C(=O)N3CCC(=O)N(CC(=O)N4CCN(C)CC4)c4cc(Cl)ccc43)cc2)cc1` [16-9), 8-Chloro-5-{4-[2-(4-methylphenyl)benzoylamino]benzoyl}-1-[(4-methyl-1-piperazinyl)carbonylmethyl]-1,3,4,5-tetrahydro-1,5-benzodiazepin-2(2H)-one] was run?
Its IC50 is 3.3 nM.

How did the IC50 turn out when `Cc1ccc(-c2ccccc2C(=O)Nc2ccc(C(=O)N3CCCC(CC(=O)N4CCN(C)CC4)c4ccccc43)cc2)cc1` (centres unmarked) [16-69), 1-{4-[2-(4-Methylphenyl)benzoylamino]benzoyl}-5-(4-methyl-1-piperazinylcarbonyl)methyl-2,3,4,5-tetrahydro-1H-1-benzazepine] was run?
The IC50 was 5.1 nM.

With `Cc1ccc(-c2ccccc2C(=O)Nc2ccc(C(=O)N3CCC(=O)N(CC(=O)N4CCN(C)CC4)c4cc(C)ccc43)cc2)cc1` [16-14), 8-Methyl-5-{4-[2-(4-methylphenyl)benzoylamino]benzoyl}-1-[(4-methyl-1-piperazinyl)carbonylmethyl]1,3,4,5-tetrahydro-1,5-benzodiazepin-2(2H)-one] as the molecule, how does the IC50 read?
Its IC50 is 2.7 nM.

Which IC50 does the source give for `Cc1ccc(-c2ccccc2C(=O)Nc2ccc(C(=O)N3CC(=O)Nc4ccccc43)cc2)cc1` [2-4), 1-{4-[2-(4-Methylphenyl)benzoylamino]benzoyl}-1,2,3,4-tetrahydroquinoxalin-3-one] here?
Its IC50 is 3 nM.
